“Also recorded” adds a separate entry of the source.
How the values were obtained:
[1] = Plasma concentrations of circulating metabolites of VBZ; format: in vivo; conditions: metabolites formed from VBZ
human VMAT1 transporter = target: T1, human VMAT1 transporter (Homo sapiens, UniProt P54219); experiment: Uptake in cells expressing VMAT1; format: cell-based; conditions: test compounds at concentrations up to 10 μM
T1 construct: expressed in transfected cells
T1 sequence (P54219 1-525): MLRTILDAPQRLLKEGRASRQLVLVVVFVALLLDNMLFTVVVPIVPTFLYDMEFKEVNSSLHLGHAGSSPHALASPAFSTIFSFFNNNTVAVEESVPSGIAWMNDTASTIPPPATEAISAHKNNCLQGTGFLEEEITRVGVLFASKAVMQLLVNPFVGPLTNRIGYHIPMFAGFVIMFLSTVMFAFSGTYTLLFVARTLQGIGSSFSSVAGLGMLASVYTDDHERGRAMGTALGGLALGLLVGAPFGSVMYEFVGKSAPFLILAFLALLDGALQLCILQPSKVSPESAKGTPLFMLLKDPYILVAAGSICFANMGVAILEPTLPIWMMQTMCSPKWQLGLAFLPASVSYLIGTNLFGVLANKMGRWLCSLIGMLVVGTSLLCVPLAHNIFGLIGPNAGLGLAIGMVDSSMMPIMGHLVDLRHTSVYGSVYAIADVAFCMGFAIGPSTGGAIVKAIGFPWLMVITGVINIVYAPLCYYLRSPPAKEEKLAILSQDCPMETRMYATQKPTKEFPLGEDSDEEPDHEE

[2] = tested on: more than 80 targets including GPCRs, cell-surface monoamine transporters, and ion channels including HERG; experiment: Multi-target activity screen (Cerep screen), whole panel; format: binding; conditions: receptors
[3] = tested on: ptosis (adrenergic activation); experiment: Ptosis, in vivo surrogate measure
rat and human VMAT2 = experiment: VMAT2 [3H]-DHTBZ binding, summary statements over rat and human tissues; conditions: rat striatum and human platelet homogenates
Experimental: The affinity of each compound was measured by inhibition of [^3H]-DHTBZ binding to rat forebrain membranes. […] The affinity of each compound was measured by inhibition of [^3H]-DHTBZ binding to either human platelets or rat striatal membranes.

[4] = tested on: prolactin release (D2 dopamine receptor); experiment: Serum prolactin, in vivo surrogate measure
[5] = tested on: dopamine, serotonin and adrenergic receptor subtypes; experiment: Detailed radioligand binding assays, monoamine receptors; conditions: radioligand binding assays and broad panel screen

## COc1cc2c(cc1OC)[C@H]1C[C@@H](OC(=O)[C@@H](N)C(C)(C)O)[C@H](CC(C)C)CN1CC2 [NBI-136110]
[1]
  decline of plasma concentrations (half-lives), in words: half-lives similar to VBZ
Human VMAT1 transporter
  inhibition of uptake through VMAT1, in words: no significant inhibitory activity; also recorded: no significant effect
[2]
  affinity for more than 80 binding sites, in words: little to no affinity

## COc1cc2c(cc1OC)[C@H]1C[C@@H](O)[C@H](CC(C)C)CN1CC2 [R,R,R-DHTBZ, (2R,3R,11bR)-3-isobutyl-9,10-dimethoxy-1,3,4,6,7,11b-hexahydro-2H-pyrido[2,1-a]isoquinolin-2-ol]
[1]
  decline of plasma concentrations (half-lives), in words: half-lives similar to VBZ
Human VMAT1 transporter
  inhibition of uptake through VMAT1, in words: no significant inhibitory activity; also recorded: no significant effect
[2]
  affinity for more than 80 binding sites, in words: little to no affinity
[3]
  induction of ptosis, in words: induced ptosis in an equivalent manner
Rat and human VMAT2
  VMAT2 inhibition, in words: most potent inhibitor of VMAT2
[4]
  increase in serum prolactin levels, in words: induced a similar increase in serum prolactin levels as TBZ

## COc1cc2c(cc1OC)[C@@H]1C[C@@H](O)[C@@H](CC(C)C)CN1CC2 [R,S,S-DHTBZ, reference compound]
[5]
  interaction with D1 and D2 receptors, in words: interact with D1 and D2 receptors

## COc1cc2c(cc1OC)[C@@H]1C[C@H](O)[C@@H](CC(C)C)CN1CC2 [S,S,S-DHTBZ, reference compound]
[5]
  interaction with D1 and D2 receptors, in words: interact with D1 and D2 receptors

## COc1cc2c(cc1OC)C1CC(=O)C(CC(C)C)CN1CC2 (stereo not shown) [TBZ, reference compound]
Human VMAT1 transporter
  inhibition of uptake through VMAT1, in words: no significant inhibitory activity; also recorded: no significant effect
[3]
  induction of ptosis, in words: induced ptosis in an equivalent manner
[4]
  increase in serum prolactin levels, in words: increase in serum prolactin levels

## COc1cc2c(cc1OC)[C@H]1C[C@@H](OC(=O)[C@@H](N)C(C)C)[C@H](CC(C)C)CN1CC2 [Valbenazine, (S)-2-amino-3-methyl-butyric acid (2R,3R,11bR)-3-isobutyl-9,10-dimethoxy-1,3,4,6,7,11b-hexahydro-2H-pyrido[2,1-a]isoquinolin-2-yl ester]
Human VMAT1 transporter; listed as VBZ
  inhibition of uptake through VMAT1, in words: no significant inhibitory activity; also recorded: no significant effect
[2]
  affinity for more than 80 binding sites, in words: little to no affinity
[3]
  induction of ptosis, in words: induced ptosis in an equivalent manner
[4]
  increase in serum prolactin levels, in words: to a lesser extent

## COC(=O)[C@H]1[C@H]2C[C@@H]3c4[nH]c5cc(OC)ccc5c4CCN3C[C@H]2C[C@@H](OC(=O)c2cc(OC)c(OC)c(OC)c2)[C@@H]1OC [reserpine, reference compound]
Human VMAT1 transporter
  inhibition of uptake through VMAT1, in words: substantially inhibited uptake through VMAT1

— US10857137B2, “Methods for the administration of certain VMAT2 inhibitors” (Neurocrine Biosciences, Inc., priority 2017, dated 2020)
